Where two headings read alike, the source gives them in different places.
Key:
[1] = tested on: D545701-14 multi protease inhibitor resistant virus; assay: Anti-viral activity against resistant virus D545701-14 in MT4 cells; type: cell-based, HIV-1
Description: (§1) Exponentially growing MT4 cells were harvested and centrifuged at 1000 rpm for 10 min in a Jouan centrifuge (model CR 4 12). […] Cell aliquots were infected by the addition of HIV-1 (strain IIIB) diluted to give a viral multiplicity of infection of 100×TCID50. […] Cell infection was allowed to proceed for 1 hr at 37° in a tissue culture incubator with humidified 5% CO2 atmosphere. After the 1 hr incubation the virus/cell suspensions were diluted 6-fold with fresh medium, and 125 μl of the cell suspension was added to each well of the plate containing pre-diluted compound. Plates were then placed in a tissue culture incubator with humidified 5% CO2 for 5 days. At the end of the incubation period, 27 μl of 5% Nonidet-40 was added to each well of the incubation plate. After thorough mixing with a Costar multitip pipetter, 60 μl of the mixture was transferred to filter-bottomed 96-well plates. The plates were analyzed in an automated assay instrument (Screen Machine, Idexx Laboratories). The assay makes use of a propidium iodide dye to estimate the DNA content of each well.
(§2) Anti-Viral Activity Against Resistant Viruses
EP13 and DS45701, two multi protease inhibitor resistant viruses were used to assess potency against mutant viruses. These viruses contain the following mutations relative to the consensus sequence of wild type virus: […]

[2] = tested on: HIV-1 (strain IIIB); assay: Antiviral activity assay in MT4 cells (propidium iodide based); type: cell-based; settings: Human immunodeficiency virus 1, IIIB; wild type HIV-1 virus, MT4 cells; read-out: Wildtype virus - IC50
Procedure, shortened: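 MT4 cells infected with HIV-1 IIIB (MOI 100×TCID50, 1 hr, 37°C), diluted 6-fold into wells with serially diluted compound, incubated 5 days. Cells lysed with Nonidet-40; DNA content per well estimated by propidium iodide staining as the viability read-out, with mock-infected controls.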

[3] = tested on: EP13 multi protease inhibitor resistant virus; assay: Anti-viral activity against resistant virus EP13 in MT4 cells; type: cell-based, HIV-1
Description: as §1, §2
EP13 and DS45701, two multi protease inhibitor resistant viruses were used to assess potency against mutant viruses. These viruses contain the following mutations relative to the consensus sequence of wild type virus:
EP13: Protease amino acid sequence: M46I, L63P, A71V, V82F/L, I84V; No reverse transcriptase mutations.

[4] = Human immunodeficiency virus 1, MT4, read-out: D545701-14 mutant - IC50, D545701-14 multi protease inhibitor resistant virus, MT4 cells
[5] = Human immunodeficiency virus 1, MT4, read-out: EP13 mutant IC50, EP13 multi protease inhibitor resistant virus, MT4 cells
[6] = Human immunodeficiency virus 1, MT4, read-out: Reference data for protease inhibitors (D545701-14), D545701-14 mutant virus
[7] = Human immunodeficiency virus 1, MT4, read-out: Reference data for protease inhibitors (EP13), EP13 mutant virus

| SMILES | IC50 [1, 4] | IC50 [2] | IC50 [3, 5] | IC50 [1, 6] | IC50 [3, 7] | IC50 ([1]; read-out: D545701-14 mutant - IC50, D545701-14 multi protease inhibitor resistant virus, MT4 cells) | IC50 ([3]; read-out: EP13 mutant IC50, EP13 multi protease inhibitor resistant virus, MT4 cells) |
| --- | --- | --- | --- | --- | --- | --- | --- |
| CCC(CC)ON(C[C@@H](O)[C@H](Cc1ccc(OCc2ccccc2)cc1)NC(=O)O[C@H]1CO[C@H]2OCC[C@H]21)S(=O)(=O)c1ccc2c(c1)OCO2 [Compound 329, (3R,3aS,6aR)-Hexahydrofuro[2,3-b]furan-3-yl (1S,2R)-3-[(1,3-benzodioxol-5-ylsulfonyl)(1-ethylpropoxy)amino]-1-[4-(benzyloxy)benzyl]-2-hydroxypropylcarbamate] | 10 to 100 nM | 1 to 10 nM | 10 to 100 nM | – | – | – | – |
| CCCCNC(=O)CCCOc1ccc(C[C@H](NC(=O)O[C@H]2CO[C@H]3OCC[C@H]32)[C@H](O)CN(CC(C)C)S(=O)(=O)c2ccc3c(c2)OCO3)cc1 [Compound 288, (3R,3aS,6aR)-hexahydrofuro[2,3-b]furan-3-yl (1S,2R)-3-[(1,3-benzodioxol-5-ylsulfonyl)(isobutyl)amino]-1-{4-[4-(butylamino)-4-oxobutoxy]benzyl}-2-hydroxypropylcarbamate] | 1 to 10 nM | 1 to 10 nM | 1 to 10 nM | – | – | – | – |
| Cc1nc(COc2ccc(C[C@H](NC(=O)O[C@H]3CO[C@H]4OCC[C@H]43)[C@H](O)CN(CC(C)C)S(=O)(=O)c3ccc(O)c(C)c3)cc2)cs1 [Compound 348, (3R,3aS,6aR)-hexahydrofuro[2,3-b]furan-3-yl (1S,2R)-2-hydroxy-3-[[(4-hydroxy-3-methylphenyl)sulfonyl](isobutyl)amino]-1-{4-[(2-methyl-1,3-thiazol-4-yl)methoxy]benzyl}propylcarbamate] | 1 to 10 nM | 1 to 10 nM | 1 to 10 nM | – | – | – | – |
| CNC(=O)OCCCCOc1ccc(C[C@H](NC(=O)O[C@H]2CO[C@H]3OCC[C@H]32)[C@H](O)CN(CC(C)C)S(=O)(=O)c2ccc3c(c2)OCO3)cc1 [Compound 318, (3R,3aS,6aR)-Hexahydrofuro[2,3-b]furan-3-yl (1S,2R)-3-[(1,3-benzodioxol-5-ylsulfonyl)(isobutyl)amino]-2-hydroxy-1-[4-(4-{[(methylamino)carbonyl]oxy}butoxy)benzyl]propylcarbamate] | 1 to 10 nM | 1 to 10 nM | 1 to 10 nM | – | – | – | – |
| CC(C)CN(C[C@@H](O)[C@H](Cc1ccc(OCc2cccc([N+](=O)[O-])c2)cc1)NC(=O)O[C@H]1CO[C@H]2OCC[C@H]21)S(=O)(=O)c1ccc2c(c1)OCO2 [Compound 384, (3R,3aS,6aR)-hexahydrofuro[2,3-b]furan-3-yl (1S,2R)-3-[(1,3-benzodioxol-5-ylsulfonyl)(isobutyl)amino]-2-hydroxy-1-{4-[(3-nitrobenzyl)oxy]benzyl}propylcarbamate] | 1 to 10 nM | 1 to 10 nM | 1 to 10 nM | – | – | – | – |
| CC(C)CN(C[C@@H](O)[C@H](Cc1ccccc1)NC(=O)O[C@H]1CCOC1)S(=O)(=O)c1ccc(N)cc1 [Amprenavir, reference compound] | – | – | – | > 1000 nM | 600 nM | – | – |
| CC(C)c1nc(CN(C)C(=O)N[C@H](C(=O)N[C@@H](Cc2ccccc2)C[C@H](O)[C@H](Cc2ccccc2)NC(=O)OCc2cncs2)C(C)C)cs1 [Ritonavir, reference compound] | – | – | – | > 10000 nM | > 600 nM | – | – |
| CC(C)CN(C[C@@H](O)[C@H](Cc1ccc(OCCCc2ccccc2)cc1)NC(=O)O[C@H]1CO[C@H]2OCC[C@H]21)S(=O)(=O)c1ccc2c(c1)OCO2 [Compound 353, (3R,3aS,6aR)hexahydrofuro[2,3-b]furan-3-yl (1S,2R)-3-[(1,3-benzodioxol-5-ylsulfonyl)(isobutyl)amino]-2-hydroxy-1-[4-([3-phenylpropyl]oxy)benzyl]propylcarbamate] | – | – | – | – | – | 1 to 10 nM | < 1 nM |
| CC(C)(C)NC(=O)[C@@H]1CN(Cc2cccnc2)CCN1C[C@@H](O)C[C@@H](Cc1ccccc1)C(=O)N[C@H]1c2ccccc2C[C@H]1O [Indinavir, reference compound] | – | – | – | 700 nM | 560 nM | – | – |

Reference: US8455497B2, “Inhibitors of aspartyl protease” (Vertex Pharmaceuticals Incorporated, priority 1999, dated 2013)
